These molecules were tested against human LPAR1 (Homo sapiens (Human), UniProt Q92633) (assay: LPAR1 intracellular calcium mobilization assay (antagonist mode, FLIPR)). Settings: CHO-K1 EDG2 cells expressing human LPAR1, LPA 18:2 at EC80 (100 nM), test compound 0.5 nM to 10 μM.
Type: cell-based

human LPAR1, sequence (Q92633 whole entry): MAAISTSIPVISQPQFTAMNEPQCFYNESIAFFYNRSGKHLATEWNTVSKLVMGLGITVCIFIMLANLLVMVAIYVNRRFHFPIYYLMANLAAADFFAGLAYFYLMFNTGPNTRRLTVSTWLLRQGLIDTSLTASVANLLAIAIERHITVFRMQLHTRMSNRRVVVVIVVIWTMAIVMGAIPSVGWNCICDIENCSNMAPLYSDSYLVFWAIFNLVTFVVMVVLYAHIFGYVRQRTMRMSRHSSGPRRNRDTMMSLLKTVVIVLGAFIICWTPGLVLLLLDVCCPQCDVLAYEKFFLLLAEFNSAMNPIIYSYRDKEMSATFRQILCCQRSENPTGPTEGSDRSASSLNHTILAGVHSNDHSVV

Row | SMILES | EC50 [nM]
1 | C[C@@H](OC(=O)Nc1c(-c2ccc(NC(=O)C34CC(C5COC5)(C3)C4)cn2)nnn1C)c1cccnc1Cl [Compound 44, (R)-1-(2-chloropyridin-3-yl)ethyl (1-methyl-4-(5-(3-(oxetan-3-yl)bicyclo[1.1.1]pentane-1-carboxamido)pyridin-2-yl)-1H-1,2,3-triazol-5-yl)carbamate] | 165
2 | Cc1nc2cc(C(=O)Nc3ccc(-c4nnn(C)c4NC(=O)O[C@H](C)c4cc(F)cnc4F)nc3)cnc2[nH]1 [Compound 277, (R)-1-(2,5-difluoropyridin-3-yl)ethyl (1-methyl-4-(5-(2-methyl-3H-imidazo[4,5-b]pyridine-6-carboxamido)pyridin-2-yl)-1H-1,2,3-triazol-5-yl)carbamate] | 955
3 | C[C@@H](OC(=O)Nc1c(-c2ccc(NC(=O)C3(CN)CCC3)cn2)nnn1C)c1cc(F)cnc1F [Compound 303, (R)-1-(2,5-difluoropyridin-3-yl)ethyl (4-(5-(1-(aminomethyl)cyclobutane-1-carboxamido)pyridin-2-yl)-1-methyl-1H-1,2,3-triazol-5-yl)carbamate] | 565
4 | C[C@@H](OC(=O)Nc1c(-c2ccc(NC(=O)c3cnc(N4CCOCC4)nc3)cn2)nnn1C)c1cc(F)cnc1F [Compound 284, (R)-1-(2,5-difluoropyridin-3-yl)ethyl (1-methyl-4-(5-(2-morpholinopyrimidine-5-carboxamido)pyridin-2-yl)-1H-1,2,3-triazol-5-yl)carbamate] | 908
5 | C[C@@H](OC(=O)Nc1c(-c2ccc(NC(=O)c3cc(C(F)(F)F)cnc3F)cn2)nnn1C)c1cc(F)cnc1F [Compound 275, (R)-1-(2,5-difluoropyridin-3-yl)ethyl (4-(5-(2-fluoro-5-(trifluoromethyl)nicotinamido)pyridin-2-yl)-1-methyl-1H-1,2,3-triazol-5-yl)carbamate] | 241
6 | C[C@@H](OC(=O)Nc1c(-c2cnc(NC(=O)C34CC(F)(C3)C4)cn2)nnn1C)c1cc(F)cnc1Cl [Compound 333, (R)-1-(2-chloro-5-fluoropyridin-3-yl)ethyl (4-(5-(3-fluorobicyclo[1.1.1]pentane-1-carboxamido)pyrazin-2-yl)-1-methyl-1H-1,2,3-triazol-5-yl)carbamate] | 219
7 | C[C@@H](OC(=O)Nc1c(-c2ccc(NC(=O)C3(C(F)F)COC3)cn2)nnn1C)c1cc(F)cnc1F [Compound 214, (R)-1-(2,5-difluoropyridin-3-yl)ethyl (4-(5-(3-(difluoromethyl)oxetane-3-carboxamido)pyridin-2-yl)-1-methyl-1H-1,2,3-triazol-5-yl)carbamate] | 357
8 | CC(C#N)C(=O)Nc1ccc(-c2nnn(C)c2NC(=O)O[C@H](C)c2cccnc2Cl)nc1 (stereo partly drawn) [Compound 143, (R)-1-(2-chloropyridin-3-yl)ethyl (4-(5-(2-cyanopropanamido)pyridin-2-yl)-1-methyl-1H-1,2,3-triazol-5-yl)carbamate] | 189
9 | C[C@@H](OC(=O)Nc1c(-c2ccc(NC(=O)C3(CN)CC(F)(F)C3)cn2)nnn1C)c1cc(F)cnc1F [Compound 301, (R)-1-(2,5-difluoropyridin-3-yl)ethyl (4-(5-(1-(aminomethyl)-3,3-difluorocyclobutane-1-carboxamido)pyridin-2-yl)-1-methyl-1H-1,2,3-triazol-5-yl)carbamate] | 66.9
10 | C[C@@H](OC(=O)Nc1c(-c2ccc(NC(=O)[C@@H]3C[C@H]3C#N)cn2)nnn1C)c1cc(F)cnc1Cl (mixture of isomers) [Compound 285, (R)-1-(2-chloro-5-fluoropyridin-3-yl)ethyl (4-(5-((1RS,2RS)-2-cyanocyclopropane-1-carboxamido)pyridin-2-yl)-1-methyl-1H-1,2,3-triazol-5-yl)carbamate] | 71.8
11 | C[C@@H](OC(=O)Nc1c(-c2ccc(NC(=O)C(C)(C)C#N)cn2)nnn1C)c1cccnc1Cl [Compound 129, (R)-1-(2-chloropyridin-3-yl)ethyl (4-(5-(2-cyano-2-methylpropanamido)pyridin-2-yl)-1-methyl-1H-1,2,3-triazol-5-yl)carbamate] | 492
12 | C[C@@H]1CCCN1C(=O)Nc1ccc(-c2nnn(C)c2NC(=O)O[C@H](C)c2cccnc2Cl)nc1 [Compound 192, (R)-1-(2-chloropyridin-3-yl)ethyl (1-methyl-4-(5-((R)-2-methylpyrrolidine-1-carboxamido)pyridin-2-yl)-1H-1,2,3-triazol-5-yl)carbamate] | 10000
13 | C[C@@H](OC(=O)Nc1c(-c2ccc(NC(=O)c3ccc(C4(C#N)CC4)nc3)cn2)nnn1C)c1cc(F)cnc1F [Compound 271, (R)-1-(2,5-difluoropyridin-3-yl)ethyl (4-(5-(6-(1-cyanocyclopropyl)nicotinamido)pyridin-2-yl)-1-methyl-1H-1,2,3-triazol-5-yl)carbamate] | 229
14 | C[C@@H](OC(=O)Nc1c(-c2ccc(NC(=O)C34CC(F)(C3)C4)cn2)nnn1C)c1cccnc1Cl [Compound 70, (R)-1-(2-chloropyridin-3-yl)ethyl (4-(5-(3-fluorobicyclo[1.1.1]pentane-1-carboxamido)pyridin-2-yl)-1-methyl-1H-1,2,3-triazol-5-yl)carbamate] | 47.8
15 | C[C@@H](OC(=O)Nc1c(-c2ccc(NC(=O)C3CC(F)(F)C3)cn2)nnn1C)c1cccnc1F [Compound 171, (R)-1-(2-fluoropyridin-3-yl)ethyl (4-(5-(3,3-difluorocyclobutane-1-carboxamido)pyridin-2-yl)-1-methyl-1H-1,2,3-triazol-5-yl)carbamate] | 140
16 | C[C@@H](OC(=O)Nc1c(-c2ccc(NC(=O)[C@@H]3CC3(F)F)cn2)nnn1C)c1cc(F)cnc1F [Compound 164, (R)-1-(2,5-difluoropyridin-3-yl)ethyl (4-(5-((S)-2,2-difluorocyclopropane-1-carboxamido)pyridin-2-yl)-1-methyl-1H-1,2,3-triazol-5-yl)carbamate] | 245
17 | C[C@@H](OC(=O)Nc1c(-c2ccc(NC(=O)[C@@H]3C[C@H]3C(F)F)cn2)nnn1C)c1cc(F)cnc1F (mixture of isomers) [Compound 216, (R)-1-(2,5-difluoropyridin-3-yl)ethyl (4-(5-((1RS,2RS)-2-(difluoromethyl)cyclopropane-1-carboxamido)pyridin-2-yl)-1-methyl-1H-1,2,3-triazol-5-yl)carbamate] | 22.4
18 | C[C@@H](OC(=O)Nc1c(-c2ccc(NC(=O)C3(CN)CC3(F)F)cn2)nnn1C)c1cc(F)cnc1F (stereo partly drawn) [Compound 300, (R)-1-(2,5-difluoropyridin-3-yl)ethyl (4-(5-(1-(aminomethyl)-2,2-difluorocyclopropane-1-carboxamido)pyridin-2-yl)-1-methyl-1H-1,2,3-triazol-5-yl)carbamate] | 961
19 | C[C@@H](OC(=O)Nc1c(-c2ccc(NC(=O)[C@@]3(C#N)C[C@@H]3F)cn2)nnn1C)c1cc(F)cnc1F [Compound 270, (R)-1-(2,5-difluoropyridin-3-yl)ethyl (4-(5-((1S,2S)-1-cyano-2-fluorocyclopropane-1-carboxamido)pyridin-2-yl)-1-methyl-1H-1,2,3-triazol-5-yl)carbamate] | 168
20 | C[C@@H](OC(=O)Nc1c(-c2ccc(NC(=O)C3(C#N)CC3)cn2)nnn1C)c1cc(F)cnc1F [Compound 39, (R)-1-(2,5-difluoropyridin-3-yl)ethyl (4-(5-(1-cyanocyclopropane-1-carboxamido)pyridin-2-yl)-1-methyl-1H-1,2,3-triazol-5-yl)carbamate] | 50.8
21 | C[C@@H](OC(=O)Nc1c(-c2ccc(NC(=O)c3ccnc(F)c3)cn2)nnn1C)c1cc(F)cnc1F [Compound 213, (R)-1-(2,5-difluoropyridin-3-yl)ethyl (4-(5-(2-fluoroisonicotinamido)pyridin-2-yl)-1-methyl-1H-1,2,3-triazol-5-yl)carbamate] | 175
22 | C[C@@H](OC(=O)Nc1c(-c2ccc(NC(=O)C3(C#N)CCC3)cn2)nnn1C)c1cccnc1Cl [Compound 66, (R)-1-(2-chloropyridin-3-yl)ethyl (4-(5-(1-cyanocyclobutane-1-carboxamido)pyridin-2-yl)-1-methyl-1H-1,2,3-triazol-5-yl)carbamate] | 66.6
23 | C[C@@H](OC(=O)Nc1c(-c2ccc(NC(=O)N3CCC(F)(F)C3)cn2)nnn1C)c1cccnc1Cl [Compound 193, (R)-1-(2-chloropyridin-3-yl)ethyl (4-(5-(3,3-difluoropyrrolidine-1-carboxamido)pyridin-2-yl)-1-methyl-1H-1,2,3-triazol-5-yl)carbamate] | 287
24 | C[C@@H](OC(=O)Nc1c(-c2ccc(NC(=O)C3CCC3(F)F)cn2)nnn1C)c1cccnc1Cl (stereo partly drawn) [Compound 63, (R)-1-(2-chloropyridin-3-yl)ethyl (4-(5-(2,2-difluorocyclobutane-1-carboxamido)pyridin-2-yl)-1-methyl-1H-1,2,3-triazol-5-yl)carbamate] | 120
25 | C[C@@H](OC(=O)Nc1c(-c2ncc(NC(=O)c3ccc(C(F)(F)F)nc3)cn2)nnn1C)c1cc(F)cnc1Cl [Compound 332, (R)-1-(2-chloro-5-fluoropyridin-3-yl)ethyl (1-methyl-4-(5-(6-(trifluoromethyl)nicotinamido)pyrimidin-2-yl)-1H-1,2,3-triazol-5-yl)carbamate] | 354
26 | C[C@@H](OC(=O)Nc1c(-c2ccc(NC(=O)C3(C(N)=O)CC3)cn2)nnn1C)c1cccnc1Cl [Compound 92, (R)-1-(2-chloropyridin-3-yl)ethyl (4-(5-(1-carbamoylcyclopropane-1-carboxamido)pyridin-2-yl)-1-methyl-1H-1,2,3-triazol-5-yl)carbamate] | 601
27 | C[C@@H](OC(=O)Nc1c(-c2ccc(NC(=O)c3ccncc3)cn2)nnn1C)c1cccnc1Cl [Compound 61, (R)-1-(2-chloropyridin-3-yl)ethyl (4-(5-(isonicotinamido)pyridin-2-yl)-1-methyl-1H-1,2,3-triazol-5-yl)carbamate] | 134
28 | C[C@@H](OC(=O)Nc1c(-c2ccc(NC(=O)C34CC(C3)C4)cn2)nnn1C)c1cccnc1Cl [Compound 68, (R)-1-(2-chloropyridin-3-yl)ethyl (4-(5-(bicyclo[1.1.1]pentane-1-carboxamido)pyridin-2-yl)-1-methyl-1H-1,2,3-triazol-5-yl)carbamate] | 40.8
